Measurements as given in the supplement of paper PMC10307832.

What was measured:
Experiment in all cases: relative viability (nuclei count vs DMSO), 5 days (fraction); higher = more cells survive
Dovitinib + Tozasertib = compound: CN1CCN(c2ccc3nc(-c4c(N)c5c(F)cccc5[nH]c4=O)[nH]c3c2)CC1 [Dovitinib] + Cc1cc(Nc2cc(N3CCN(C)CC3)nc(Sc3ccc(NC(=O)C4CC4)cc3)n2)n[nH]1 [Tozasertib] (partner 0.1 µM)
In short: (§1)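 After 5 days of treatment, lung cancer cells in 1536-well plates were fixed and stained in a single step (final 0.05% Triton X-100, 1% formaldehyde, 1 ug/ml Hoechst) and their nuclei counted on 4× images. Treatment had been applied by pin tool the day after seeding as one drug alone or as a fixed anchor-drug dose with five library-drug doses (not always all listed) in √10 steps. Relative viability is the nuclei count of treated wells divided by that of vehicle wells, and values are medians of duplicate plates.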

Dovitinib + Foretinib = compound: CN1CCN(c2ccc3nc(-c4c(N)c5c(F)cccc5[nH]c4=O)[nH]c3c2)CC1 [Dovitinib] + COc1cc2c(Oc3ccc(NC(=O)C4(C(=O)Nc5ccc(F)cc5)CC4)cc3F)ccnc2cc1OCCCN1CCOCC1 [Foretinib] (partner 0.25 µM)
In short: as §1

Dovitinib + Luminespib = compound: CN1CCN(c2ccc3nc(-c4c(N)c5c(F)cccc5[nH]c4=O)[nH]c3c2)CC1 [Dovitinib] + CCNC(=O)c1noc(-c2cc(C(C)C)c(O)cc2O)c1-c1ccc(CN2CCOCC2)cc1 [Luminespib] (partner 0.01 µM)
In short: as §1

Dovitinib + AZD7762 = compound: CN1CCN(c2ccc3nc(-c4c(N)c5c(F)cccc5[nH]c4=O)[nH]c3c2)CC1 [Dovitinib] + NC(=O)Nc1cc(-c2cccc(F)c2)sc1C(=O)N[C@H]1CCCNC1 [AZD7762] (partner 0.2 µM)
In short: as §1

Row | Cell Line | relative viability (Dovitinib + Tozasertib; first compound 0.02 µM) | relative viability (Dovitinib + Tozasertib; first compound 0.06325 µM) | relative viability (Dovitinib + Tozasertib; first compound 0.2 µM) | relative viability (Dovitinib + Tozasertib; first compound 0.6325 µM) | relative viability (Dovitinib + Tozasertib; first compound 2 µM) | relative viability (Dovitinib + Foretinib; first compound 0.02 µM) | relative viability (Dovitinib + Foretinib; first compound 0.06325 µM) | relative viability (Dovitinib + Foretinib; first compound 0.2 µM) | relative viability (Dovitinib + Foretinib; first compound 0.6325 µM) | relative viability (Dovitinib + Foretinib; first compound 2 µM) | relative viability (Dovitinib + Luminespib; first compound 0.02 µM) | relative viability (Dovitinib + Luminespib; first compound 0.06325 µM) | relative viability (Dovitinib + Luminespib; first compound 0.2 µM) | relative viability (Dovitinib + Luminespib; first compound 0.6325 µM) | relative viability (Dovitinib + Luminespib; first compound 2 µM) | relative viability (Dovitinib + AZD7762; first compound 0.02 µM) | relative viability (Dovitinib + AZD7762; first compound 0.06325 µM) | relative viability (Dovitinib + AZD7762; first compound 0.2 µM) | relative viability (Dovitinib + AZD7762; first compound 0.6325 µM) | relative viability (Dovitinib + AZD7762; first compound 2 µM)
1 | NCI-H2170 | 0.658 | 0.856 | 0.733 | 0.787 | 0.787 | 0.992 | 0.986 | 1.02 | 0.983 | 0.974 | 0.892 | 0.79 | 0.857 | 0.538 | 0.652 | 0.773 | 1.02 | 0.928 | 0.857 | 0.883
2 | NCI-H2342 | 0.602 | 0.631 | 0.488 | 0.488 | 0.504 | 1.14 | 1.02 | 1.09 | 1.17 | 1.01 | 0.675 | 0.711 | 0.741 | 0.692 | 0.579 | 0.561 | 0.583 | 0.488 | 0.8 | 0.473
3 | NCI-H2347 | 0.523 | 0.478 | 0.503 | 0.619 | 0.62 | 1.58 | 0.902 | 0.83 | 1.2 | 1.02 | 0.426 | 0.442 | 0.661 | 0.357 | 0.255 | 0.701 | 0.606 | 0.864 | 0.774 | 0.754
4 | NCI-H2405 | 0.732 | 0.722 | 0.782 | 0.705 | 0.883 | 1.02 | 0.977 | 1.05 | 1.04 | 1.11 | 0.657 | 0.579 | 0.7 | 0.58 | 0.817 | 0.693 | 0.781 | 0.736 | 0.696 | 0.78
5 | NCI-H3122 | 0.37 | 0.368 | 0.488 | 0.406 | 0.415 | 1.06 | 0.963 | 0.875 | 0.985 | 0.853 | 0.0862 | 0.096 | 0.092 | 0.0979 | 0.112 | 0.926 | 1.02 | 0.995 | 0.925 | 0.93
6 | PC-3 [JPC-3] | 0.838 | 0.884 | 0.892 | 0.889 | 0.83 | 1.08 | 1 | 1.1 | 1.01 | 1.05 | 0.681 | 0.695 | 0.722 | 0.782 | 0.71 | 0.84 | 0.855 | 0.921 | 0.866 | 0.827
7 | PC-14 | 0.542 | 0.649 | 0.684 | 0.644 | 0.643 | 0.976 | 0.91 | 0.945 | 0.945 | 0.914 | 0.147 | 0.158 | 0.15 | 0.17 | 0.16 | 0.309 | 0.343 | 0.385 | 0.351 | 0.357
8 | RERF-LC-KJ | 0.556 | 0.369 | 0.516 | 0.518 | 0.511 | 0.832 | 0.905 | 0.96 | 0.886 | 0.858 | 1.32 | 1.25 | 1.4 | 1.19 | 1.47 | 1.05 | 0.916 | 1.03 | 1.02 | 0.868
9 | SW 900 | 0.459 | 0.537 | 0.533 | 0.582 | 0.689 | 0.85 | 0.841 | 0.919 | 1 | 0.792 | 0.181 | 0.173 | 0.176 | 0.164 | 0.149 | 0.591 | 0.62 | 0.505 | 0.681 | 0.615
